In patent EP4725956A1, “MODIFIED POLYPEPTIDE AND USE THEREOF IN FIELD OF ANALGESIA” (Nanjing Anji Biotechnology Co., Ltd., priority 2023, dated 2024):
pKd: −log10 of the molar value. Positions of bridges follow the written chain, without caps; N, C: chain ends. Non-standard residues stand in square brackets, D forms with d. Residues, ends and D or L forms follow the SMILES beside them. Bip = N[C@@H](Cc1ccc(-c2ccccc2)cc1)C(=O)O; Hyp = O=C(O)[C@@H]1C[C@@H](O)CN1; Nle = CCCC[C@H](N)C(=O)O; Orn = NCCC[C@H](N)C(=O)O; Aib = CC(C)(N)C(=O)O

Columns and labels:
[1] = system: rat paclitaxel-induced chronic chemotherapy pain model; experiment: Rat paclitaxel chemotherapy pain model, same dose (Example 5); assay type: in vivo; conditions: for analgesic activity compared with the model group (mechanical pain threshold) / ranking among the five candidate modified peptides / analgesic activity (mechanical pain threshold): 1 mg/kg s.c.; for analgesic activity compared with the model group (mechanical pain threshold): four rounds of treatment; for analgesic activity (mechanical pain threshold): day 12, 7 h after dosing; for analgesic efficacy compared with the positive control pregabalin: peptide 1 mg/kg s.c. vs pregabalin 30 mg/kg oral gavage, overall
Procedure: Male SPF (Specific Pathogen Free) SD rats weighing 180-200 g (Shanghai Institute of Planned Parenthood Research, Experimental Animal Department) were used. On the day of model induction, rats were weighed, and baseline mechanical pain thresholds were measured. Animals with large differences in body weight or pain threshold were excluded, and the remaining rats were subjected to the experimental protocol. Paclitaxel powder was dissolved in olive oil to 1 mg/mL. Each rat received an intraperitoneal injection of 2 mg/kg per dose. Four injections were administered on days 1, 3, 5, and 7. Rats in the negative control or vehicle control group received injections of the solvent used to dissolve paclitaxel. […] The blank group in Table 4 represents rats without pain modeling, and the model group represents rats with pain modeling but no drug treatment. On days 1, 3, 5, and 12, drugs were administered at fixed times. On days 1, 3, and 5, mechanical pain thresholds of the right hind paw at the corresponding time were measured at 1 h, 2.5 h, 4 h, and 5.5 h after dosing using a blunt probe. On day 12, mechanical pain thresholds were measured at 4 h and 7 h after dosing. […] AJ003-36 and AJ003-40 were thus identified as candidate molecules for further study. Paclitaxel is a widely used small-molecule chemotherapy drug that, while effective against tumors, can induce neuropathic pain in many cancer patients due to neurotoxicity. The chronic chemotherapy pain model induced in male SD rats via multiple low-dose intraperitoneal injections of paclitaxel simulates clinical chemotherapy-induced neuropathic pain. Using this model, the analgesic effects of five modified peptides, the parent peptide AJ003, and the positive control pregabalin were evaluated. […] Table 4 Dosing Scheme for Screening Analgesic Activity of Selected Modified Peptides at the Same Dose in the Paclitaxel Chemotherapy Pain Model

[2] = system: rat paclitaxel-induced chronic chemotherapy pain model; experiment: Rat paclitaxel chemotherapy pain model, different doses (Example 6); assay type: in vivo; conditions: for analgesic activity compared with the model group (mechanical pain threshold): 1 mg/kg s.c., five rounds of treatment; for analgesic activity compared with the positive control pregabalin: high dose 1.5 mg/kg s.c. vs pregabalin 30 mg/kg oral gavage; for analgesic effect compared with the model group (mechanical pain threshold): high dose 1.5 mg/kg s.c., 8 h after dosing; for analgesic activity compared with the parent peptide AJ003: low dose 0.5 mg/kg s.c. vs AJ003 1 mg/kg s.c.
Procedure: Male SPF (Specific Pathogen Free) SD rats weighing 180-200 g (Shanghai Institute of Planned Parenthood Research, Experimental Animal Department) were purchased and allowed to acclimate for approximately one week. On the day of model induction, rats were weighed, and baseline mechanical pain thresholds were measured. Animals with large differences in body weight or pain threshold were excluded, and the remaining rats were subjected to the experimental protocol. Paclitaxel powder was dissolved in olive oil to 1 mg/mL. Each rat received an intraperitoneal injection of 2 mg/kg per dose. Four injections were administered on days 1, 3, 5, and 7. Rats in the negative control or vehicle control group received injections of the solvent used to dissolve paclitaxel. […] Starting from day 15 after model induction, drugs were administered daily for consecutive days. On days 1, 4, 7, 12, and 14 of treatment, mechanical pain thresholds of the right hind paw at the corresponding time were measured at 2 h, 4 h, 6 h, and 8 h after dosing using a blunt probe. […]. […] Table 5 Dosing Scheme for Screening Analgesic Activity of Selected Modified Peptides at Different Doses in the Paclitaxel Chemotherapy Pain Model

[3] = system: mouse oxaliplatin-induced acute chemotherapy pain model; experiment: Mouse oxaliplatin chemotherapy pain model, different doses (Example 7); assay type: in vivo
Procedure: Oxaliplatin was dissolved in 5% glucose solution to a concentration of 1 mg/mL. For model induction, each male C57 mouse (Hangzhou Ziyuan Experimental Animal Technology Co., Ltd.) received a single intraperitoneal injection of oxaliplatin at 10 mg/kg. Mice in the negative control or blank control group received 5% glucose solution. Approximately one week after model induction, mechanical pain thresholds of the mice were measured three times per mouse, and the average value was calculated. Mice were then randomly assigned to groups based on their pain thresholds. Drug administration was carried out according to the dosing schedule shown in Table 6, with a single dose per mouse. Mechanical pain thresholds were measured at 0.5, 1, 2, 4, 6, and 8 h post-dose. […] Table 6 Dosing Scheme for Oxaliplatin Chemotherapy Pain Model

α7 nAChR = α7 nAChR (Homo sapiens, UniProt P36544); experiment: BLI (biolayer interferometry) affinity of peptides to α7 nAChR; assay type: binding; design: inferred from the 'similar' procedure on NTA sensors; conditions: NTA sensor, α7 nAChR 20 µg/mL, peptide 1.372-1000 nM in PBS
Procedure, shortened: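 Target protein immobilised on NTA biosensors from PBS at 5 µg/mL (α9) or 20 µg/mL (α7). Peptides run in PBS as threefold series from 1000 nM to 1.372 nM with a PBS blank, 5-minute association and 5-minute dissociation; KD from fitted ka and kd.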

[4] = single dose, 0.5, 1, 2 and 4 h post-dose, 2 mg/kg s.c. (AJ003; AJ003-36 medium dose)
[5] = single dose, 6 h post-dose, 2 mg/kg s.c. (AJ003; AJ003-36 medium dose)
[6] = single dose, 8 h post-dose, 2 mg/kg s.c. (AJ003; AJ003-36 medium dose)

| SMILES | analgesic activity compared with the model group (mechanical pain threshold) ([1]; beyond 4 h after dosing) | analgesic activity compared with the model group (mechanical pain threshold) ([1]; within 4 h after dosing) | analgesic activity compared with the model group (mechanical pain threshold) ([2]; beyond 4 h after dosing) | analgesic activity compared with the model group (mechanical pain threshold) ([2]; within 4 h after dosing) | analgesic activity compared with the model group (mechanical pain threshold) [3, 4] | analgesic activity compared with the model group (mechanical pain threshold) [3, 5] | analgesic activity compared with the model group (mechanical pain threshold) [3, 6] | pKd (α7 nAChR) | ranking among the five candidate modified peptides [1] | analgesic activity (mechanical pain threshold) [1] | analgesic efficacy compared with the positive control pregabalin [1] | analgesic activity compared with the positive control pregabalin [2] | analgesic effect compared with the model group (mechanical pain threshold) [2] | analgesic activity compared with the parent peptide AJ003 [2] | analgesic activity compared with the model group (mechanical pain threshold) ([3]; single dose, 0.5, 1, 2 and 4 h post-dose, 1 mg/kg s.c. (low dose)) | analgesic activity compared with the model group (mechanical pain threshold) ([3]; single dose, 0.5, 1, 2 and 4 h post-dose, 3 mg/kg s.c. (high dose)) | analgesic activity compared with the model group (mechanical pain threshold) ([3]; single dose, 6 h post-dose, 1 mg/kg s.c. (low dose)) | analgesic activity compared with the model group (mechanical pain threshold) ([3]; single dose, 6 h post-dose, 3 mg/kg s.c. (high dose)) | analgesic activity compared with the model group (mechanical pain threshold) ([3]; single dose, 8 h post-dose, 1 mg/kg s.c. (low dose)) | analgesic activity compared with the model group (mechanical pain threshold) ([3]; single dose, 8 h post-dose, 3 mg/kg s.c. (high dose)) |
| --- | --- | --- | --- | --- | --- | --- | --- | --- | --- | --- | --- | --- | --- | --- | --- | --- | --- | --- | --- | --- |
| CC(C)C[C@H](NC(=O)[C@@H](NC(=O)[C@H]1CSSC[C@H](NC(=O)[C@H](CO)NC(=O)CN)C(=O)N[C@@H](CO)C(=O)N[C@@H]([C@@H](C)O)C(=O)N2CCC[C@H]2C(=O)N2CCC[C@H]2C(=O)N[C@@H](CO)C(=O)N1)C(C)C)C(=O)N[C@@H](Cc1ccc(O)cc1)C(=O)N[C@@H](CO)C(=O)O [AJ003, GSCSTPPS-(D-Cys)-VLYS (disulfide bond between positions 3 and 9)] (H-GSCSTPPS[dC]VLYS-OH; disulfide 3-9) | no significant analgesic effect | significant analgesic activity | no significant effect | significant analgesic activity | significant analgesic activity | no significant effect | no significant effect | 6.65 |  |  |  |  |  |  |  |  |  |  |  |  |
| CCCC[C@H](NC(=O)[C@@H](NC(=O)[C@H]1CSSC[C@H](NC(=O)[C@H](CO)NC(=O)CN)C(=O)N[C@@H](CO)C(=O)N[C@H]([C@H](C)O)C(=O)N2C[C@H](O)C[C@H]2C(=O)N2C[C@H](O)C[C@H]2C(=O)NC(C)(C)C(=O)N1)C(C)C)C(=O)N[C@@H](Cc1ccc(-c2ccccc2)cc1)C(=O)N[C@@H](CCCN)C(N)=O [AJ003-36, GSCS-(D-Thr)-Hyp-Hyp-Aib-(D-Cys)-V-Nle-Bip-Orn-NH2 (3,9 disulfide bond)] (H-GSCS[dT][Hyp][Hyp][Aib][dC]V[Nle][Bip][Orn]-NH2; disulfide 3-9) |  |  |  |  | significant analgesic activity | significant analgesic activity | significant analgesic activity | 7.39 | top three analgesic candidates | prolonged analgesic activity lasting up to 7 h | comparable in analgesic efficacy to pregabalin | slightly superior to the positive control pregabalin | remained significant | comparable to that of AJ003 at 1 mg/kg | significant analgesic activity | significant analgesic activity | significant analgesic activity | significant analgesic activity | no significant effect | significant analgesic activity |
| CCCC[C@H](NC(=O)[C@@H](NC(=O)[C@H]1CSSC[C@H](NC(=O)[C@H](CO)NC(=O)CN)C(=O)N[C@@H](CO)C(=O)N[C@H]([C@H](C)O)C(=O)N2C[C@H](O)C[C@H]2C(=O)N2C[C@H](O)C[C@H]2C(=O)N[C@@H](CO)C(=O)N1)C(C)C)C(=O)N[C@@H](Cc1c[nH]c2ccccc12)C(=O)N[C@@H](CCCN)C(N)=O [AJ003-40, GSCS-(D-Thr)-Hyp-Hyp-S-(D-Cys)-V-Nle-W-Orn-NH2 (3,9 disulfide bond)] (H-GSCS[dT][Hyp][Hyp]S[dC]V[Nle]W[Orn]-NH2; disulfide 3-9) |  |  |  |  |  |  |  | 7.33 | top three analgesic candidates | prolonged analgesic activity lasting up to 7 h | comparable in analgesic efficacy to pregabalin | slightly superior to the positive control pregabalin | remained significant | comparable to that of AJ003 at 1 mg/kg |  |  |  |  |  |  |
